Patent US10500142B2, “Oral care compositions” (COLGATE-PALMOLIVE COMPANY, priority 2015, dated 2019)

Columns and labels:
[1] = Solution preparation: clarity / dissolution of SnF2 with TSPP or TKPP in water; assay type: physicochemical; details: 2% SnF2 in water with TSPP or TKPP; as prepared
Protocol: The solutions are prepared by first dissolving TSPP or TKPP in water (mixing under high heat if necessary) and then adding a 20% stannous fluoride solution to the clear solution with an automatic pipet. […] All of the solutions contain 2% SnF2.

[2] = SnCl2.2H2O/pyrophosphate solutions: appearance on preparation and aging at room temperature; assay type: physicochemical; details: 3% SnCl2.2H2O; aged overnight at room temperature
Protocol: Solutions are prepared by dissolving TSPP in deionized water (mixing under heat if necessary) and then adding 0.6 g of SnCl2.2H2O to make 20-gram solutions.
The solutions with a P/Sn molar ratio spanning from 0.5 to 5 containing 3% SnCl2.2H2O are aged overnight at room temperature. A 3% SnCl2.2H2O solution is used as a control.
Solutions are prepared by dissolving TKPP in deionized water (mixing under heat if necessary) and then adding 0.6 g SnCl2.2H2O to make 20-g solutions.

Structure (SMILES)	appearance / dissolution of the solution on preparation [1]	appearance after aging overnight [2]
[F][Sn][F] [2% stannous fluoride solution, stannous fluoride]	precipitate almost immediately after dissolution	
O.O.[Cl][Sn][Cl] [3% SnCl2.2H2O solution, SnCl2.2H2O]		cloudy precipitate that settles
